Source: ChEMBL document CHEMBL1201862, “PubChem BioAssay data set” (2004)
Calls of active or inactive are those of the source.

Experiments:
[1] = antiviral protection against BTV-induced cell death – arbovirus, BSR cells, confirmation (AID 1250); assay type: functional;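 note: protection from viral cytopathic effect measured as cell viability by ATP luminescence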
[2] = Luminescence Cell-Based Dose Confirmation HTS to Identify Inhibitors of Platelet Dense Granule Release. [Related pubchem assays: 1663 (Primary HTS), 1678 (Summary of Project)]; assay type: functional
H9c2 = test: cells; assay type: functional, cell-based; details: Rattus norvegicus, H9c2, Myocardium;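 note: confirmatory concentration-response retest of ultra-high-throughput screening hits for modulation of myocardial damage; cell death induced by hydrogen peroxide oxidative stress; compound pretreatment for 60 min then peroxide exposure for 2 h; potency is for protecting the cells against peroxide damage rather than for killing them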
[3] = target: T1, Luciferin 4-monooxygenase (Photinus pyralis, UniProt P08659); test: inhibition of purified Photinus pyralis luciferase – biochemical, luminescence, dose response (AID 1891)
[4] = target: Glyceraldehyde-3-phosphate dehydrogenase (Homo sapiens, UniProt P04406)
Bcl-2-related protein A1 [5] = target: T2, Bcl-2-related protein A1 (Mus musculus, UniProt Q07440); test: Bfl-1 binding inhibitors, SAR follow-up, biochemical, fluorescence polarization (AID 1070)
T2 sequence (Q07440 whole entry): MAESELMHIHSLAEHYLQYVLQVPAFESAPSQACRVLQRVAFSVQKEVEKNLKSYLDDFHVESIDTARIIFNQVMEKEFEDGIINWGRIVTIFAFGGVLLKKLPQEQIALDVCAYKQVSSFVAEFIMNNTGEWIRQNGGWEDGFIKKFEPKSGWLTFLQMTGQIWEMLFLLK

Bcl-2-related protein A1 [6] = target: T2, Bcl-2-related protein A1; test: small-molecule antagonists of Bfl-1/BH3 interaction – biochemical, TR-FRET, mouse Bfl-1, confirmation (AID 621);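 note: TR-FRET binding of GST-Bfl-1 to FITC-labelled Bid peptide via terbium antibody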
[7] = Luminescence Cell-Based Dose Response HTS to Identify Activators of Luciferase Translation or Activity in H4 […] Cells. [Related pubchem assays: 1829 (Project Summary), 1814 (Primary HTS)]; assay type: functional
[8] = target: T3, Sentrin-specific protease 8 (Homo sapiens, UniProt Q96LD8); assay type: functional;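 note: luminescence read-out of SENP8 inhibition, dose-response confirmation following an ultra-high-throughput screen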
T3 sequence (Q96LD8 whole entry): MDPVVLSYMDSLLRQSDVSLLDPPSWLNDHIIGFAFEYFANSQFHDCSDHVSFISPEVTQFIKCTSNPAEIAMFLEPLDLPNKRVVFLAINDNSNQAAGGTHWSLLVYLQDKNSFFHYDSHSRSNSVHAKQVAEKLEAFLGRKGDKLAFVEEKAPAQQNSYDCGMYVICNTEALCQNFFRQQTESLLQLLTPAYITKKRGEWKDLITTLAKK

[9] = Luminescence Cell-Based Dose Response to Identify Activators of 5'UTR Stem-Loop Driven Prion Protein mRNA Translation in H4-C Neuroglioblastoma Cells. [Related pubchem assays: 1829 (Project Summary), 1814 (Primary HTS)]; assay type: functional
Caspase-3 = target: T4, Caspase-3 (Homo sapiens, UniProt P42574); assay type: functional;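 note: Dose-response selectivity test against caspase-3 for candidate inhibitors of sentrin-specific proteases (SENPs)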
T4 sequence (P42574 whole entry): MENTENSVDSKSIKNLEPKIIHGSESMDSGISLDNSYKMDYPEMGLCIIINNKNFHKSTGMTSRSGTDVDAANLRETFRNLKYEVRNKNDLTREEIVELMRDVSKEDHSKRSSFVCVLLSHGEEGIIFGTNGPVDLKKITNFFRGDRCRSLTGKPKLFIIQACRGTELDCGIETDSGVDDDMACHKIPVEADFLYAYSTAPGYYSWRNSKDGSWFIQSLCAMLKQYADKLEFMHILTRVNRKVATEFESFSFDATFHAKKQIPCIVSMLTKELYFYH

[10] = target: T5, Sentrin-specific protease 6 (Homo sapiens, UniProt Q9GZR1); assay type: functional;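 note: Luminescence-based dose-response confirmatory assay of SENP6 inhibition, following up an ultra-high-throughput screen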
T5 sequence (Q9GZR1 whole entry): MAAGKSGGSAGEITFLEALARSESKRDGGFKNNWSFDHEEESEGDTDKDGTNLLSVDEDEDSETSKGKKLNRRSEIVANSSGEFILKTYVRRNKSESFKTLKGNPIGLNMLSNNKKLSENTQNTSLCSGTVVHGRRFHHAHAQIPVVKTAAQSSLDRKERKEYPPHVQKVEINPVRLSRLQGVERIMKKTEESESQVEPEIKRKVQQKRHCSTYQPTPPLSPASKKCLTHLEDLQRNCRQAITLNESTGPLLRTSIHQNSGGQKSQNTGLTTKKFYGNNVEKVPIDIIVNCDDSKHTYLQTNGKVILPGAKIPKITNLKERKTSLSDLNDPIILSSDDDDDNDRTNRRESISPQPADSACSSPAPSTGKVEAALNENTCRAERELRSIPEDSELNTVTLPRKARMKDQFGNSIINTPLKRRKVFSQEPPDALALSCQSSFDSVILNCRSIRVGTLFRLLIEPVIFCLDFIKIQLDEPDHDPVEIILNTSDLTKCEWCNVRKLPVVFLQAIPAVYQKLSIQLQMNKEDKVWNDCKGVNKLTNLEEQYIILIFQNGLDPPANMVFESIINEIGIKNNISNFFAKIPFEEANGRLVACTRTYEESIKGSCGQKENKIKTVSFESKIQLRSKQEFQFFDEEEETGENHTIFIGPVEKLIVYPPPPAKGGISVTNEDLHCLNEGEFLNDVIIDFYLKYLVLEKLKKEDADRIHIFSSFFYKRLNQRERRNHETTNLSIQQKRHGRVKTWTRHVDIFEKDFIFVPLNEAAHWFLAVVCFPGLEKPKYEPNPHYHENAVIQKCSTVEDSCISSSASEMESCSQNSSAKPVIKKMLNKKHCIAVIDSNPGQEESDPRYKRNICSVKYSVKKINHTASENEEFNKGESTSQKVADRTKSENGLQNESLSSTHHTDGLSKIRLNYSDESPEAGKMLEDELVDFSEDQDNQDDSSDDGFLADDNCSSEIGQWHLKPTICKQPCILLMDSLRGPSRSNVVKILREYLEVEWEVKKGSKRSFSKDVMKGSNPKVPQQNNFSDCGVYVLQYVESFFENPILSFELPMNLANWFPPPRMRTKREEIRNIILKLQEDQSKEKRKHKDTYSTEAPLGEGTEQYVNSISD

[11] = Luminescence Cell-Based Dose Confirmation to Identify Activators of 5'UTR Stem-Loop Driven Alpha-Synuclein mRNA Translation in H4 Neuroglioblastoma Cells. [Related pubchem assays: 1829 (Project Summary), 1814 (Primary HTS)]; assay type: functional
[12] = target: T6, Sentrin-specific protease 7 (Homo sapiens, UniProt Q9BQF6); assay type: functional;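 note: Luminescence-based dose-response confirmation of ultra-high-throughput screening hits, measuring inhibition of SENP7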
T6 sequence (Q9BQF6 whole entry): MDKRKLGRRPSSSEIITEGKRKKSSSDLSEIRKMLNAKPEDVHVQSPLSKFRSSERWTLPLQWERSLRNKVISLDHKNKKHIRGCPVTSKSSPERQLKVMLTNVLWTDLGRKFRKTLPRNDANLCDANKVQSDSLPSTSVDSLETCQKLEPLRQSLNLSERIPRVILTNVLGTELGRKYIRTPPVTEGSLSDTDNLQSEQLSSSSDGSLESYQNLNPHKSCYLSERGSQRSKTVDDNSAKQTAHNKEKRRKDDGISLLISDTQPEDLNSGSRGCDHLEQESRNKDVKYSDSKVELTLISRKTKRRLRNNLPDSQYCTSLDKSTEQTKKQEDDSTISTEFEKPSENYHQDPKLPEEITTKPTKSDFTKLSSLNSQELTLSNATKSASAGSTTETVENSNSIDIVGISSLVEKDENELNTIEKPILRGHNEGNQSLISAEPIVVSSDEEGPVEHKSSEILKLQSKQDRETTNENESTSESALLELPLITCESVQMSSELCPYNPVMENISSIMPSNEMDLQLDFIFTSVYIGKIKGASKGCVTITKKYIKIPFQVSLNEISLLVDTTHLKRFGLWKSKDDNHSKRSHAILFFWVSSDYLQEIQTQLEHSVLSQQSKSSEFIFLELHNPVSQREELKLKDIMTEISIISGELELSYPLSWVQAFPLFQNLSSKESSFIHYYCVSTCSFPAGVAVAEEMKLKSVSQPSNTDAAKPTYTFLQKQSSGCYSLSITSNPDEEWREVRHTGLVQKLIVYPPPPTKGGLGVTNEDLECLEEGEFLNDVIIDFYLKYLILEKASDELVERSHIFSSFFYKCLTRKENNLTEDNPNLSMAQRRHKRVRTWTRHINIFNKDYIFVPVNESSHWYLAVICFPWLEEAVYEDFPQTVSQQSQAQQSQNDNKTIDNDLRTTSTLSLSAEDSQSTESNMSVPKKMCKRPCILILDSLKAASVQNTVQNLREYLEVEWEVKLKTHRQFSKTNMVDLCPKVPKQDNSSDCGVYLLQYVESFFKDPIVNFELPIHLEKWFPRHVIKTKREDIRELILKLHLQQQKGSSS

[13] = Luminescence Cell-Based Dose Response to Identify Activators of Luciferase Translation or Activity in H4-C Neuroglioblastoma Cells. [Related pubchem assays: 1829 (Project Summary), 1814 (Primary HTS)]; assay type: functional
H4 = test: Luminescence Cell-Based Dose Response HTS to Identify Activators of 5'UTR Stem-Loop Driven Prion Protein mRNA Translation in H4 Neuroglioblastoma Cells. [Related pubchem assays: 1829 (Project Summary), 1814 (Primary HTS)]; assay type: functional; details: Homo sapiens
[14] = A Cell Based Secondary Assay To Explore Cytotoxicity of Compounds that Sensitize Mycobacterium Tuberculosis to Beta-Lactam Antibiotics.; assay type: functional
HT-1080 = test: HT1080 cell viability loss – fluorescence readout (AID 620); assay type: functional, cell-based; details: Homo sapiens
[15] = target: T1, Luciferin 4-monooxygenase; test: Counter Screen for Luciferase-based Assay Positives. [Related pubchem assays: 620, 618, 411 ]
[16] = target: Epstein-Barr nuclear antigen 1 (Epstein-Barr virus (strain B95-8) (HHV-4) (Human herpesvirus 4), UniProt P03211); test: inhibition of EBV nuclear antigen 1 DNA binding – biochemical, fluorescence polarization, 1536-well, dose response (AID 2381); design: species or system human gammaherpesvirus 4;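 note: fluorescence polarization of a Cy5 DNA probe bound by EBNA-1 protein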
[17] = target: Lytic switch protein BZLF1 (Epstein-Barr virus (strain B95-8) (HHV-4) (Human herpesvirus 4), UniProt P03206); test: inhibition of BZLF1 ZTA DNA binding – biochemical, fluorescence polarization, Epstein-Barr virus, 1536-well, counter-screen for EBNA-1 inhibitor project, dose response (AID 2377); design: species or system human gammaherpesvirus 4;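 note: fluorescence polarization of Cy5-labelled ZRE DNA probe bound by purified Zta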
Cytochrome P450 3A4 = Cytochrome P450 3A4 (Homo sapiens, UniProt P08684);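 note: CYP3A4 tested as one member of a cytochrome P450 panel screen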
[18] = target: Peroxisome proliferator-activated receptor gamma/Nuclear receptor coactivator 1 (Homo sapiens, UniProt P37231); assay type: functional;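 note: agonist potency as compounds enhance coactivator SRC-1 recruitment to PPARgamma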
[19] = target: Peroxisome proliferator-activated receptor gamma/Nuclear receptor coactivator 3 (Homo sapiens, UniProt P37231); assay type: functional;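 note: agonist potency for raising coactivator recruitment to the receptor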
[20] = target: Peroxisome proliferator-activated receptor gamma/Nuclear receptor coactivator 2 (Homo sapiens, UniProt P37231); assay type: functional;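 note: agonist potency for raising coactivator recruitment to the receptor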
Protein skinhead-1 = target: T7, Protein skinhead-1 (Caenorhabditis elegans, UniProt P34707); assay type: functional
T7 sequence (P34707 whole entry): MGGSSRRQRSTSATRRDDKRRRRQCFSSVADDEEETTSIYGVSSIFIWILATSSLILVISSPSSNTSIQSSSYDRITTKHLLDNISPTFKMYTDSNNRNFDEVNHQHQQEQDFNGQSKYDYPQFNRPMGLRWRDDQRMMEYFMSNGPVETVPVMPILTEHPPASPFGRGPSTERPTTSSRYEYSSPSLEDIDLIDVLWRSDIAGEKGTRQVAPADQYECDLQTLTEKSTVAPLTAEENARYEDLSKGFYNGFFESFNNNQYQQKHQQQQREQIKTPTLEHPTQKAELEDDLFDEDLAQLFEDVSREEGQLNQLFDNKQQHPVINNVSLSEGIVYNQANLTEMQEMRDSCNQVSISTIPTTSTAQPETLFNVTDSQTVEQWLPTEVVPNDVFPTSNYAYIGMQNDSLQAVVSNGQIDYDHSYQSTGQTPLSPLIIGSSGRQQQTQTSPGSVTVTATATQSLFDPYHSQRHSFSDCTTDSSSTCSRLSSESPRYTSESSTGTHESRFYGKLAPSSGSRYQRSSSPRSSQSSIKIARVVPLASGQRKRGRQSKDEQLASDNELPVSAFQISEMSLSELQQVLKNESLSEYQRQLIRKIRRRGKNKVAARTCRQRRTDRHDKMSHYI

Cytochrome P450 2C19 = Cytochrome P450 2C19 (Homo sapiens, UniProt P33261); test: Cytochrome panel assay with activity outcomes. Panel member name: p450-cyp2c19 Compounds with AC50 equal or less than 10 uM are considered active; assay type: functional; details: read-out: AC50
Chain of Cytochrome P450 2C19 (P33261 whole entry): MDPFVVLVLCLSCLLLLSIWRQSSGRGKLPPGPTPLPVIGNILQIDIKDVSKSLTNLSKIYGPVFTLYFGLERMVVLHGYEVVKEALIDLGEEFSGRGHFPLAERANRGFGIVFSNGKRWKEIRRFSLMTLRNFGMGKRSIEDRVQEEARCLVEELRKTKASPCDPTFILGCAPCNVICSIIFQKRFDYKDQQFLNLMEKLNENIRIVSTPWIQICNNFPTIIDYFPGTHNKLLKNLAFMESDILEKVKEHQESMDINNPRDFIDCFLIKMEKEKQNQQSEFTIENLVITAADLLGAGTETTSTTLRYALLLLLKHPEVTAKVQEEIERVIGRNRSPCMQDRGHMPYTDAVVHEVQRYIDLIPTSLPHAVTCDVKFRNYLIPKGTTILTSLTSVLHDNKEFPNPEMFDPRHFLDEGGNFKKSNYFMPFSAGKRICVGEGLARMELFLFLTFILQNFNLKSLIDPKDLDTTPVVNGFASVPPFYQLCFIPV

T1 sequence (P08659 whole entry): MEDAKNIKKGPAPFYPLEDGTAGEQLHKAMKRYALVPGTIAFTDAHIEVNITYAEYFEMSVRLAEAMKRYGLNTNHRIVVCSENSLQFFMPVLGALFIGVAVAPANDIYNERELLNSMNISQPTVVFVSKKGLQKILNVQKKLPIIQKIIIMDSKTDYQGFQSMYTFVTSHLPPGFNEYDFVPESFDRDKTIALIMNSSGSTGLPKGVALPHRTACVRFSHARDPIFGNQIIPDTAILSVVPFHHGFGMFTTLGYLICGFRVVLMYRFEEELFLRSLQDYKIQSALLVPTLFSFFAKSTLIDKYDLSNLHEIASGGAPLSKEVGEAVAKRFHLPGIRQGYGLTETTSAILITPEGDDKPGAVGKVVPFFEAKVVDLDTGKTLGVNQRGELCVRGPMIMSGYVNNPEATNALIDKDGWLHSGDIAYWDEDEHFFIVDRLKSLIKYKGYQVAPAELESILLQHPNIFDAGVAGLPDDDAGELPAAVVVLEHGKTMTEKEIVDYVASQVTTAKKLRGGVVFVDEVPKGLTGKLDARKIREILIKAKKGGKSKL
Chain of Epstein-Barr nuclear antigen 1 (P03211 whole entry): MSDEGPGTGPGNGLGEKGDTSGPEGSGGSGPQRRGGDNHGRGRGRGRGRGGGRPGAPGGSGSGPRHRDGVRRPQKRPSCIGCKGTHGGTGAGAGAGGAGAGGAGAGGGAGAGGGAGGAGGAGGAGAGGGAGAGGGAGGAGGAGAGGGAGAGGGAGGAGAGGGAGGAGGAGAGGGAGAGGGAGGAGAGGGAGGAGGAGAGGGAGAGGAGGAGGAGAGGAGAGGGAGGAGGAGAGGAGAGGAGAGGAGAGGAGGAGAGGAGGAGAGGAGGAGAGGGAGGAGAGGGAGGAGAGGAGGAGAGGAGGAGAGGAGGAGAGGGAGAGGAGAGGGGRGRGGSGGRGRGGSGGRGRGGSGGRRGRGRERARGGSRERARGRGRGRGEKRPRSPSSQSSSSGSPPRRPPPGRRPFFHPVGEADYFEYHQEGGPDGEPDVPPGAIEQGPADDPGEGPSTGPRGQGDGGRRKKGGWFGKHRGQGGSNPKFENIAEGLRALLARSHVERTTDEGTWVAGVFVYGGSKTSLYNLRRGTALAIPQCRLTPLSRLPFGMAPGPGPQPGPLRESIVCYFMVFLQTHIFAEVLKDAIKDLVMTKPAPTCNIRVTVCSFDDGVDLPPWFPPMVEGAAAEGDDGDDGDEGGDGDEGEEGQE
Chain of Lytic switch protein BZLF1 (P03206 whole entry): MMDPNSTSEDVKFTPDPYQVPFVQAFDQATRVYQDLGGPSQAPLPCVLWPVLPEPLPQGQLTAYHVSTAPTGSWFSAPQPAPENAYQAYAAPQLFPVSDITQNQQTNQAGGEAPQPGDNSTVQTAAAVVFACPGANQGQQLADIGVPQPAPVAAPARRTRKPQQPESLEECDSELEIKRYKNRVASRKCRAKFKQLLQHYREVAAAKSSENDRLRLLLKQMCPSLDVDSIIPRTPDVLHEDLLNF
Chain of Peroxisome proliferator-activated receptor gamma/Nuclear receptor coactivator 3 (P37231 whole entry): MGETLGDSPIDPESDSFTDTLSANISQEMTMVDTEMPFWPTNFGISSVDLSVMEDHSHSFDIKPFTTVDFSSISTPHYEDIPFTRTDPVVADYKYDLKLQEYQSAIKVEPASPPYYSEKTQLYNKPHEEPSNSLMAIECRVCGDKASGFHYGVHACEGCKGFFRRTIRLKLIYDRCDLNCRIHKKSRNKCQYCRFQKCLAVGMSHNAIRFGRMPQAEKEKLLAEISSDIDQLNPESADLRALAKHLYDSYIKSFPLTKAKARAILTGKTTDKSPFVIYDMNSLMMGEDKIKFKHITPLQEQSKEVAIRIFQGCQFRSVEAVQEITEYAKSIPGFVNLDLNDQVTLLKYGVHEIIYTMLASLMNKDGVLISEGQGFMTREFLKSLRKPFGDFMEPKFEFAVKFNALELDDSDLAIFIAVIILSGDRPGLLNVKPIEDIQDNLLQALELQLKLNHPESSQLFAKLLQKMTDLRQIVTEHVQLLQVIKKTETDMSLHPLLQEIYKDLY
Chain of Peroxisome proliferator-activated receptor gamma/Nuclear receptor coactivator 3 (Q9Y6Q9 whole entry, further chain): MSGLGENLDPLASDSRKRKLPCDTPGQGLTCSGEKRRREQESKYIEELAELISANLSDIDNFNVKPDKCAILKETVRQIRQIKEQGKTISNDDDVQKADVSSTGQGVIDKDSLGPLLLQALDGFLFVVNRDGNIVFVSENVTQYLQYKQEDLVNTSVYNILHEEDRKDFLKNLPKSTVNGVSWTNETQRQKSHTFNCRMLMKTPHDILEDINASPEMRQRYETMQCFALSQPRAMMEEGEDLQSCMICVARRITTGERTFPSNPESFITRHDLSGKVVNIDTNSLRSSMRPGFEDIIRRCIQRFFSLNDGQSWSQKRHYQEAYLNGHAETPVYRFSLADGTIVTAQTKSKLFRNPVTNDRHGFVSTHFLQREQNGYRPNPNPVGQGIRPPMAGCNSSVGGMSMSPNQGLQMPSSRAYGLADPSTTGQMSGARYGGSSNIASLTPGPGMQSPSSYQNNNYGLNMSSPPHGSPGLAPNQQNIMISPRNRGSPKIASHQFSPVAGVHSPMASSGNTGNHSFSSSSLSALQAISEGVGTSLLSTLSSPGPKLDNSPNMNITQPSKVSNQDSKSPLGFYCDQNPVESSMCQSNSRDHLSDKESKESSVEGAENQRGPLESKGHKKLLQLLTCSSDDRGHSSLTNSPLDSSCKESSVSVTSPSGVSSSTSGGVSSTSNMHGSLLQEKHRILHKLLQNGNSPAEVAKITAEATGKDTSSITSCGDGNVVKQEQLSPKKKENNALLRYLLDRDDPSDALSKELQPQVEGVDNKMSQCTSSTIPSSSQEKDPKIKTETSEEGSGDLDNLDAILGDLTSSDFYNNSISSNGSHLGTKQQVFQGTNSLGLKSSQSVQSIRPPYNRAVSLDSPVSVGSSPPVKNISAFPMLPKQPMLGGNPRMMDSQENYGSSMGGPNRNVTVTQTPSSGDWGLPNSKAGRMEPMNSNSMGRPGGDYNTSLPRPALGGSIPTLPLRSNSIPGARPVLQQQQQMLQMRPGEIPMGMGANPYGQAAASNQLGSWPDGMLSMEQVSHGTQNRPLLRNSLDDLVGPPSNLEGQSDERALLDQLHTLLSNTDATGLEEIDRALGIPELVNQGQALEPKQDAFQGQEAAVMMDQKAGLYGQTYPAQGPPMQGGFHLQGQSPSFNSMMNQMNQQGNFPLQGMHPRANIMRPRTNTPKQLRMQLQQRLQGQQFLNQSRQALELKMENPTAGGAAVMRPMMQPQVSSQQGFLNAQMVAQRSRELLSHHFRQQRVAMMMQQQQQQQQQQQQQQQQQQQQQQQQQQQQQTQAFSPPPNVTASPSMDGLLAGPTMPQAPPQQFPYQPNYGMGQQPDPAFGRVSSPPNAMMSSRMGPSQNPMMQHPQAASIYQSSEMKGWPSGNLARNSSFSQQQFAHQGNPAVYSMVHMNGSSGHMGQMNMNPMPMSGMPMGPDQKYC
Chain of Cytochrome P450 3A4 (P08684 whole entry): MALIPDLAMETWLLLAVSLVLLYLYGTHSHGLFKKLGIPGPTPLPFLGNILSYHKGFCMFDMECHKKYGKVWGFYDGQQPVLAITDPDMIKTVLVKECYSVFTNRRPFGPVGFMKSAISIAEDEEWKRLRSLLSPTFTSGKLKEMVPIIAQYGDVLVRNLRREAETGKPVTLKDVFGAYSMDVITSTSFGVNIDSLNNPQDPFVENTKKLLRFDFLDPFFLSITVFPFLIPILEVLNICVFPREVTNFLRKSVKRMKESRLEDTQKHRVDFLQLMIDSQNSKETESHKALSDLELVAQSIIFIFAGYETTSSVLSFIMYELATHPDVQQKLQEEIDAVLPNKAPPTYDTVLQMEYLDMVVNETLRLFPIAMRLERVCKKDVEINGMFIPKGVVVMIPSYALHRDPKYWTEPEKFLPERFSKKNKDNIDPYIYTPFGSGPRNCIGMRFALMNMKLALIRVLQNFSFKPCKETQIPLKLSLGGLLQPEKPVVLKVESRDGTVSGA
Chain of Glyceraldehyde-3-phosphate dehydrogenase (P04406 whole entry): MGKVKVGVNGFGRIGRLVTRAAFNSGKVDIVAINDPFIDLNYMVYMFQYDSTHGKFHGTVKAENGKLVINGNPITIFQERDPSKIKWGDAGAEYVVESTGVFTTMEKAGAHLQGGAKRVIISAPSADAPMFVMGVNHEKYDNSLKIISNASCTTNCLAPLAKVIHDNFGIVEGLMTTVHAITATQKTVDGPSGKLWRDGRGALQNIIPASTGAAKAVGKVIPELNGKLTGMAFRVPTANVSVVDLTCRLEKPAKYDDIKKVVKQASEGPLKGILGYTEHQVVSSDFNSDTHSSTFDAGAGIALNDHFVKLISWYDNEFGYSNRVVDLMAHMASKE

In the case of `COc1ccc(-c2nnc(-c3cc(OC)c(OC)c(OC)c3)o2)cc1OC`, the IC50 [1] is reported as 27.5 µM (active), the EC50 [2] is reported as > 112 µM (not active) and the IC50 (H9c2) is reported as 12.5 µM (active). For the same compound, the EC50 [3] was > 112 µM (not active).
With `CCOc1ccccc1N1CCN(C2=C(Cl)C(=O)N(c3ccc(Cl)c(Cl)c3)C2=O)CC1` the IC50 [4] was > 100 µM (not active), the IC50 (Bcl-2-related protein A1 [5]) was > 100 µM (not active) and the IC50 (Bcl-2-related protein A1 [6]) was > 100 µM (not active).
With `O=C(Nc1cccc(F)c1)Nc1ccc2c(c1)CCC2` the EC50 [7] was < 0.1 µM (active), the IC50 [8] was > 100 µM (inactive) and the EC50 [9] was 0.63 µM (active). The IC50 (Caspase-3) was 57.8 µM (active), the IC50 [10] was > 100 µM (inactive) and the EC50 [11] was 10.7 µM (active). For the same compound, the IC50 [12] was 2.85 µM (active), the EC50 [13] was 0.463 µM (active) and the EC50 (H4) was > 120 µM (not active).
With `C[C@H](NC(=O)c1[nH]cnc1C(=O)Nc1cccc(Cl)c1)c1ccccc1` the CC50 [14] was 19.3 µM (active).
With `c1ccc(-c2ccc(-c3ccccn3)nn2)nc1` the EC50 (HT-1080) was > 50 µM (not active) and the EC50 [15] was > 100 µM (not active).
For `COc1cc(OC)c(/C=C2\SC(=O)N(CC(=O)Nc3ccccc3F)C2=O)c(OC)c1`, the IC50 [16] was 1.98 µM (active) and the IC50 [17] was > 111 µM (not active).
With `Cc1ccccc1OCC(=O)Nc1sc(C(=O)Nc2cccc(C)c2C)c(C)c1C#N` the AC50 (Cytochrome P450 3A4) was “inconclusive”, the EC50 [18] was 52.4 µM (not active) and the EC50 [19] was < 79.4 µM (not active). For the same compound, the EC50 [20] was 36.5 µM (not active).
With `Cc1ccc2nc(NC(=O)c3ccco3)sc2c1` the EC50 (HT-1080) was > 50 µM (not active), the IC50 (Protein skinhead-1) was > 100 µM (inactive) and the EC50 [15] was 18.9 µM (active).
With `COc1ccc2nc(O)c(-c3nnn(-c4ccc(C)cc4)n3)cc2c1` the IC50 (Bcl-2-related protein A1 [5]) was > 100 µM (not active) and the IC50 (Bcl-2-related protein A1 [6]) was > 100 µM (not active).
For `O=C(CC1CCCC1)Nc1ccc2c(c1)CCC2`, the AC50 (Cytochrome P450 2C19) was 7.08 µM (inconclusive), the EC50 [18] was > 79.4 µM (not active) and the EC50 [19] was > 79.4 µM (not active). The EC50 [20] was > 79.4 µM (not active).
In the case of `COc1ccc(N/C=C2/C(=O)N(c3ccc(OC)cc3)C(=O)c3ccccc32)cc1`, the IC50 [16] is reported as 8.99 µM (active) and the IC50 [17] is reported as > 111 µM (not active).
